Series [1] has as its system A. fumigatus mutant strain (∆sidA/∆ftrA). Nature of the series: Siderophore utilization via growth promotion on solid minimal medium. Particulars: 0.1 µM iron-loaded siderophore, 48 h at 37 °C. It is filed as cell-based, Aspergillus fumigatus. As to the method:
Growth assays were performed on solid Aspergillus minimal medium (AMM), as described above, solidified with 1.8% (w/v) agar. The pH was adjusted with NaOH, and the medium was supplemented with the respective siderophore. The agar plates were point-inoculated with 10^4 spores per dot of ∆sidA∆ftrA [10] and incubated at 37 °C for 48 h.

Series [2] concerns pulmonary A. fumigatus infection. As to the kind of experiment: Ex vivo biodistribution in A. fumigatus-infected rats. Set-up: species or system rat. To be noted: 45 min p.i.; for radioactivity accumulation in non-infected organs (blood, spleen, pancreas, liver, heart and muscle) / route of excretion / uptake in the infected lungs as compared with radiolabeled DFO-B in the same rat: infected rats; for uptake in the infected lungs as compared with radiolabeled DFO-B in the same rat: co-injection. As to the method: A previously described rat model of pulmonary aspergillosis was used for the in vivo experiments. The introduction of A. fumigatus spores into animals, injection of radiolabeled siderophores and small animal imaging were carried out under 2% isoflurane anesthesia (FORANE, Abbott Laboratories, Abbott Park, IL, USA) to minimize animal suffering and prevent animal motion. Infection in the lung of immunodeficient rats was established by intratracheal inoculation of 100 μL of A. fumigatus spores (10^9 CFU/mL A. fumigatus ATCC 46645; American Type Culture Collection) using the TELE PACK VET X LED system equipped with a flexible endoscope (https://www.karlstorz.com/cps/rde/xbcr/karlstorz_assets/ASSETS/3386919.pdf, accessed on 20 August 2021; Karl Storz GmbH & Co. KG, Tuttlingen, Germany). Depending on the development of the infection, experimental animals underwent an ex vivo biodistribution study or PET/CT imaging, typically 2–4 days after inoculation.
A. fumigatus-infected rats were retro-orbitally (r.o.) injected with [^67Ga]- and [^68Ga]Ga-DFO-B and DFO-E. One infected rat (rat 1) was injected with [^68Ga]Ga-DFO-B and [^67Ga]Ga-DFO-E, while the second rat (rat 2) was […] with [^67Ga]Ga-DFO-B and [^68Ga]Ga-DFO-E (~0.5 MBq and ~0.5 µg of each DFO-B and DFO-E per rat). Rats were sacrificed by exsanguination 45 min post-injection (p.i.). Organs and tissues of interest (blood, spleen, pancreas, kidneys, liver, heart, muscle and lung) were removed and weighed. The amount of radioactivity in the samples was measured in a γ-counter (2480 Wizard-2; Perkin Elmer, Waltham, MA, USA). First, a short-lived ^68Ga was measured immediately after organ removal in the 511 ± 100 keV energy window, and ^67Ga was measured after 24 h in the 185 ± 100 keV energy window. The results are expressed as percentage of injected dose per gram of organ (%ID/g).

Series [3] relates to A. fumigatus strain Afs77. Nature of the series: Short-term siderophore uptake analysis. To be noted: pH 9, 45 min at 37 °C. It is filed as cell-based, Aspergillus fumigatus. As to the method: Short-term uptake of siderophore-complexed ^68Ga was analyzed as described previously. A. fumigatus strain Afs77 [25] was grown for 18 h at 37 °C in 100 mL Aspergillus minimal medium (AMM) according to Pontecorvo et. al. with 1% (w/v) glucose as the carbon source and 20 mM glutamine as the nitrogen source, using iron-free trace elements to induce iron limiting for the transcriptional activation of siderophore uptake. To generate iron-replete mycelia for the transcriptional downregulation of siderophore uptake, the growth medium contained an additional 0.03 mM FeSO4. For the analysis of the pH-dependent siderophore uptake, the pH of the fungal culture medium was adjusted with HCl (1 M) and NaOH (1 M) immediately before the uptake analyses. Uptake assays were performed with 180 µL of liquid A. fumigatus culture added to a prewetted 96-well MultiScreen Filter Plates HTS (1 μm glass fiber filter, Merck Millipore, Darmstadt, Germany). Then, 50 µL of radioactive labelled siderophores (~100 nM) were added to the culture and incubated for 45 min at 37 °C. After washing two times with ice-cold TRIS buffer, the dried filters were measured in a γ-counter.

Another series relates to Staphylococcus aureus. To be noted: cited from earlier work.
For another series, the system named is Klebsiella pneumoniae. Particulars: cited from earlier work.
For the next series, the system named is Pseudomonas aeruginosa. To be noted: cited from earlier work.
Another series concerns Aspergillus flavus. Set-up: method as in PMID 23818006. To be noted: cited from earlier work.
A further series concerns Candida albicans. Set-up: method as in PMID 23818006. To be noted: cited from earlier work.
A further series deals with A. fumigatus. To be noted: cited from earlier work.
In the next series the test system is Rhizopus arrhizus. Set-up: method as in PMID 23818006. Particulars: cited from earlier work.
The subject of another series is Aspergillus terreus. Set-up: method as in PMID 23818006. Particulars: cited from earlier work.
The test system of the next series is Mycobacterium smegmatis. Set-up: method as in PMID 23818006. To be noted: cited from earlier work.
Another series deals with Fusarium solani. Set-up: method as in PMID 23818006. To be noted: cited from earlier work.
A further series concerns R. oryzae. Set-up: method as in PMID 23818006. Particulars: cited from earlier work.
The conditions of series [4]: non-infected rats; cited from earlier work.

The structures appear in SMILES notation.

In the case of `CC(=O)N([O-])CCCCCNC(=O)CCC(=O)N([O-])CCCCCNC(=O)CCC(=O)N([O-])CCCCCNC(=O)CCC(=O)O.[Fe+3]` [Fe-DFO-B^suc], the growth promotion activity entry in series [1] (pH 9 (alkaline)) was “lowest growth promotion activity”.

In the case of `O=C1CCC(=O)N([O-])CCCCCNC(=O)CCC(=O)N([O-])CCCCCNC(=O)CCC(=O)N([O-])CCCCCN1.[67Ga+3]` [[^67Ga]Ga-DFO-E], in [2], the “radioactivity accumulation in non-infected organs (blood, spleen, pancreas, liver, heart and muscle)” value is on record as “low radioactivity accumulation”; the route of excretion result is recorded as “primary excretion via kidneys”; the “uptake in the infected lungs as compared with radiolabeled DFO-B in the same rat” value was “only slightly higher uptake”.

For `CC(=O)N([O-])CCCCCNC(=O)CCC(=O)N([O-])CCCCCNC(=O)CCC(=O)N([O-])CCCCCN.[Fe+3]` [Fe-DFO-B], the growth promotion activity entry in series [1] (pH 5 (acidic), listed as Fe-DFO-B^ac) is reported as “rescued the growth promotion”; in [1] (pH 7 (neutral)), “promoted growth”; in series [1] (pH 9 (alkaline)), “promoted growth”.

For the compound `CC(=O)N([O-])CCCCCNC(=O)CCC(=O)N([O-])CCCCCNC(=O)CCC(=O)N([O-])CCCCCNC(=O)CCC(=O)O.[68Ga+3]` [[^68Ga]Ga-DFO-B^suc], the “uptake efficacy (in words)” value in series [3] is on record as “highly decreased uptake efficacy”.

As for `CC(=O)N[C@H]1CCCN2[O][Ga]3[O]N(CCC[C@H](NC(C)=O)C(=O)OCC/C(C)=C/C(=O)N(CCC[C@H](NC(C)=O)C(=O)OCC/C(C)=C/C2=O)[O]3)C(=O)/C=C(\C)CCOC1=O` [[^68Ga]Ga-TAFC], the in vitro uptake entry in the series on Staphylococcus aureus was “no significant uptake”; with Klebsiella pneumoniae it was “no significant uptake”; with Pseudomonas aeruginosa it was “no significant uptake”; in the series on Aspergillus flavus, “no significant uptake”; with Candida albicans it was “no significant uptake”; in the series with A. fumigatus, “uptake”. The in vitro uptake result with Rhizopus arrhizus is “uptake”; in the series on Aspergillus terreus it was “no significant uptake”; with Mycobacterium smegmatis, “no significant uptake”.

`O=C1CCC(=O)N([O-])CCCCCNC(=O)CCC(=O)N([O-])CCCCCNC(=O)CCC(=O)N([O-])CCCCCN1.[68Ga+3]` [[^68Ga]Ga-DFO-E]: the in vitro uptake entry in the series with Fusarium solani is on record as “considerable uptake”; in the series with R. oryzae it was “considerable uptake”; in the series on Staphylococcus aureus, “considerable uptake”; with Aspergillus flavus, “considerable uptake”; in the series with A. fumigatus it was “highest uptake”; in the series with Aspergillus terreus, “considerable uptake”. For the same compound, in [4], the “accumulation in the lungs” value is on record as “negligible accumulation”. Further, the “ratio of 68Ga activity in lung vs. blood” value in [4] is recorded as 0.79. Also, the “ratio of activity in lung vs. blood” value in [2] (infected rat 1 (injected with [68Ga]Ga-DFO-B and [67Ga]Ga-DFO-E)) is on record as “about 17”; in [2] (infected rat 2 (injected with [67Ga]Ga-DFO-B and [68Ga]Ga-DFO-E)) it was around 8. The “radioactivity accumulation in non-infected organs (blood, spleen, pancreas, liver, heart and muscle)” value in series [2] is on record as “low radioactivity accumulation”. For the same compound, the route of excretion entry in series [2] is recorded as “primary excretion via kidneys”. The “uptake in the infected lungs as compared with radiolabeled DFO-B in the same rat” value in series [2] was “only slightly higher uptake”.

For the compound `CC(=O)N(O)CCCCCNC(=O)CCC(=O)N(O)CCCCCNC(=O)CCC(=O)N(O)CCCCCN` [DFO-B, desferrioxamine B], in the series with A. fumigatus, the “in vitro uptake compared to the TAFC and DFO-E metal complexes” value was “significantly lower in vitro uptake”.

As to `CC(=O)N([O-])CCCCCNC(=O)CCC(=O)N([O-])CCCCCNC(=O)CCC(=O)N([O-])CCCCCN.[67Ga+3]` [[^67Ga]Ga-DFO-B], in series [2], the “radioactivity accumulation in non-infected organs (blood, spleen, pancreas, liver, heart and muscle)” value is “low radioactivity accumulation”; the route of excretion result is given as “primary excretion via kidneys”.

With `O=C1CCC(=O)N([O-])CCCCCNC(=O)CCC(=O)N([O-])CCCCCNC(=O)CCC(=O)N([O-])CCCCCN1.[Fe+3]` [Fe-DFO-E], the growth promotion activity entry in [1] (pH 5 (acidic)), in series [1] (pH 7 (neutral)) and in [1] (pH 9 (alkaline)) was “promoted the growth” in each case.

The values are drawn from publication PMC8472378, “Desferrioxamine B-Mediated Pre-Clinical In Vivo Imaging of Infection by the Mold Fungus Aspergillus fumigatus” (Journal of Fungi, 2021).
